# Source: patent publication US20130245028A1, “TREATMENT OF CANCER WITH TOR KINASE INHIBITORS” (SIGNAL PHARMACEUTICALS, LLC, priority 2012, published 2013)
# Assays:
# [1] = system: PC3 and PC3-ERG prostate cancer cells; assay: Clonogenic growth inhibition assay for ETS positive and ETS negative lines; format: cell-based; conditions: PC3 vs PC3-ERG (ETS overexpression); FIG. 1A-C
# Excerpt: Clonogenic Assay: Growth Inhibition Assay for ETS Positive and ETS Negative Lines. […] Then, cells were washed three times with PBS, trypsinized, and replated onto 6 well plates at desired cell densities. Every 3 days the media was replaced with fresh media containing compound. After typically 10-18 days, the cells were fixed and surviving colonies were stained with 0.1% crystal violet and counted by Image Quant (BD biosciences).
# [2] = system: ETS-positive (VCaP and LNCaP) and ETS-negative (PC3 and DU145) prostate cancer cell lines; assay: Caspase 3/7-Glo apoptosis assay for ETS positive and ETS negative lines; format: cell-based; conditions: single treatment, 48 hours; FIG. 2
# Experimental: Caspase Analysis: Apoptosis Assay for ETS Positive and ETS Negative Lines. […] Cells were then directly seeded at desired densities to the Compound 1-spotted 384-well plates. Cells were cultured for 48 hours at 37° C./5% CO2 and were assessed via Caspase 3/7-Glo (Promega Corporation, Madison, Wis.) and read for luminescence.
# [3] = system: LNCaP, VCaP, DU145 or PC3 prostate cancer cell lines; assay: Matrigel cell invasion assay for ETS positive and ETS negative lines; format: cell-based; conditions: 10 μM, 48 hours treatment; FIG. 3
# Experimental: Cell Invasion Assay for ETS Positive and ETS Negative Lines. […] Then cells were tripsinized and re-seeded onto BD biocoat matrigel invasion chamber insert with […] of a 24-well culture plate in serum free media. Cells were then attracted to the lower chamber by the addition of complete media as a chemoattractant. After 48 hours incubation at 37° C./5% CO2, the non-invading cells and EC matrix were gently removed with a cotton swab. Invasive cells, which were located on the lower side of the membrane, were stained with crystal violet, air dried and photographed (FIG. 3).
# [4] = system: ETS positive prostate cancer cells (VCAP and LNCAP); assay: COMET DNA damage assay; format: cell-based; conditions: FIG. 4
# Excerpt: DNA Damage Assays: COMET Assay.
# LNCaP-HR tumor = assay: Castration-resistant LNCaP (LNCaP-HR) prostate cancer in vivo xenograft model; conditions: castrated male SCID mice, oral QD up to 15 days, 1 to 5 mg/kg; FIG. 5
# Experimental: Castration-Resistant LNCaP (LNCaP-HR) Prostate Cancer In Vivo Xenograft Model A xenograft study was conducted with castration resistant LNCaP-HR tumor-bearing mice. Castrated male SCID mice were inoculated subcutaneously with LNCaP-HR cells in the flank region above the right hind leg. Following inoculation of animals, the tumors were allowed to grow to about 325 mm^3 prior to randomization. On Day 26 following tumor cell inoculation, the mice bearing LNCaP-HR tumors ranging between 98 and 530 mm^3 were pooled together and randomized into various treatment groups. […] The positive control MDV-3100 (50 mg/kg, Q4D) was administered via oral route. MDV-3100 was formulated in 1% CMC, 0.1% Tween 80 and 5% dimethyl sulfoxide (DMSO) in water (as a suspension). Tumors were measured twice a week using calipers and tumor volumes were calculated using the formula of W2×L/2 (wherein “W” is tumor width and “L” is tumor length). Statistical analysis was performed using a one-way analysis of variance (ANOVA) followed by Dunnett's post-hoc comparison with the vehicle-treated control group.
substance,measurement,setting,value
"1-ethyl-7-(2-methyl-6-(1H-1,2,4-triazol-3-yl)pyridin-3-yl)-3,4-dihydropyrazino[2,3-b]pyrazin-2(1H)-one [Compound 1]",clonogenic growth inhibition (surviving colonies),[1],ETS overexpression sensitizes PC3 cells to inhibition
same,Caspase activity (apoptosis),[2],increased apoptosis in ETS positive cell lines
same,cell invasion,[3],reduced cell invasion
same,DNA damage (COMET tail moments),[4],potentiates DNA damage in ETS positive cells
same,LNCaP-HR prostate cancer tumor growth,LNCaP-HR tumor,significantly inhibited
